# Assay results: patent EP0345931A1 (SCHERING CORPORATION, priority 1988, dated 1989)
# Like-named read-outs stand apart in the source and are kept apart here.
# What was measured:
# [1] = tested on: PAF-induced lethality; experiment: PAF-induced lethality in mice; assay type: in vivo, Swiss-Webster female CFW mice; details: for ED50: Mus musculus, read-out: ED₅₀; for % Lethality: death recorded 1 hour after challenge; for effect on PAF-induced mortality: result in words
# Description: Swiss-Webster female CFW mice (from Charles River), 5-10 per group, were injected through the tail vein with PAF in 0.5 ml of saline containing bovine serum albumin, and death was recorded.
# [2] = tested on: ovalbumin-induced lethality (anaphylactic death); experiment: Anaphylactic death in ovalbumin-sensitized mice; assay type: in vivo, Swiss-Weber female CFW mice; details: for protecting sensitized animals from death: i.p. at doses as high as 50 mg/kg (A) and 20 mg/kg (B); for protecting sensitized animals from death / protection of sensitized animals from death / protection against allergic death (anaphylactic shock) / ovalbumin-induced lethality: result in words; for protection of sensitized animals from death: antihistamines given individually; for protection against allergic death (anaphylactic shock) / ovalbumin-induced lethality: ovalbumin sensitized mice
# Description: Swiss-Weber female CFW mice (20-30 g) from Charles River were acclimatized for 7-14 days. Animals were sensitized by injecting intraperitoneally 0.5 ml of saline containing 1.6 mg of ovalbumin adsorbed to 100 mg of Al(OH)₃ gel. Ten to 15 days after sensitization, the animals, at least six per group, were injected intraveneously through the tail vein with 1.6 mg of ovalbumin in 0.5 ml of saline. One hundred percent of the sensitized animals died within 10-20 minutes. Injection of ovalbumin into normal mice caused no lethality. […] The compositions (given in dosages listed in the left-hand column of Table II below) were administered intraperitoneally either individually or in indicated combinations 30 minutes before challenge with albumin to sensitized mice. Death was recorded 1 hour after the challenge.
# [3] = tested on: PAF-induced bronchospasm; experiment: PAF-induced bronchospasm in guinea pigs; assay type: in vivo; details: Cavia porcellus
# [4] = tested on: PAF-acether; details: BN 52021 2 mg/kg p.o. alone (non-active dose); cited from earlier work
# [5] = compound 5 mg/kg i.p. 30 minutes before i.v. PAF (200 µg/kg)
# [6] = compound 10 mg/kg i.p. 30 minutes before i.v. PAF (200 µg/kg)
Compound,ED50 [1],"% Lethality [1, 5]","% Lethality [1, 6]",protecting sensitized animals from death [2],"ED50 ([3]; iv, read-out: ED₅₀'s (i.v.))",effect on PAF-induced mortality [1],protection of sensitized animals from death [2],protection against allergic death (anaphylactic shock) / ovalbumin-induced lethality [2],other results
"COc1cc([C@H]2CC[C@H](c3cc(OC)c(OC)c(OC)c3)O2)cc(OC)c1OC (relative stereo) [A, trans-2,5-bis(3,4,5-trimethoxyphenyl)tetrahydrofuran]",20 mg/kg,84%,72%,totally ineffective,0.4 mg/kg,–,–,–,"% Lethality ([1]; compound 25 mg/kg i.p. 30 minutes before i.v. PAF (200 µg/kg)): 25%; % Lethality ([1]; compound 50 mg/kg i.p. 30 minutes before i.v. PAF (200 µg/kg)): 16%; % Survival ([2]; A 50 mg/kg i.p. 30 minutes before ovalbumin challenge, death recorded 1 hour after, pooled data from five experiments): 0%"
"Cc1nnc2n1-c1sc(CCC(=O)N3CCOCC3)cc1C(c1ccccc1Cl)=NC2 [B, 4-(2-chlorophenyl)-9-methyl-6H-thieno[3,2-f][1,2,4]triazolo[4,3-a][1,4]diazepine-2-propionic acid morpholide]",1.5 mg/kg,16%,0%,totally ineffective,–,–,–,–,"% Lethality ([1]; compound 1 mg/kg i.p. 30 minutes before i.v. PAF (200 µg/kg)): 84%; % Lethality ([1]; compound 2 mg/kg i.p. 30 minutes before i.v. PAF (200 µg/kg)): 20%; % Survival ([2]; B 5 mg/kg i.p. 30 minutes before ovalbumin challenge, death recorded 1 hour after, pooled data from five experiments): 0%; ED50 ([3]; po, PAF-induced bronchospasm, read-out: ED₅₀ (p.o.)): 0.1 mg/kg"
"C[C@@H]1C(=O)O[C@H]2[C@@H](O)[C@@]34[C@H]5C[C@@H](C(C)(C)C)[C@]36[C@@H](OC(=O)[C@@H]6O)O[C@@]4(C(=O)O5)[C@@]12O [BN 52021, ginkgolide B]",–,–,–,–,–,–,–,–,change of bronchospasm [4]: -10%
"CN1CCC(=C2c3ccccc3CC(=O)c3sccc32)CC1 [D, ketotifen]",–,–,–,–,–,"Neither chlorpheniramine, clemastine nor ketotifen affected PAF-induced mortality",significant protection,only partial protection,"% Lethality ([1]; compound 1.4 mg/kg i.p. 30 minutes before i.v. PAF (200 µg/kg)): 100%; % Survival ([2]; D 0.1 mg/kg i.p. 30 minutes before ovalbumin challenge, pooled data): 40%"
"CN1CCC[C@@H]1CCO[C@](C)(c1ccccc1)c1ccc(Cl)cc1 [E, clemastine]",–,–,–,–,–,"Neither chlorpheniramine, clemastine nor ketotifen affected PAF-induced mortality",significant protection,only partial protection,"% Survival ([2]; E 0.2 mg/kg i.p. 30 minutes before ovalbumin challenge, pooled data): 45%"
"Cc1nnc2n1-c1ccc(Cl)cc1C(c1ccccc1)=NC2 [alprazolam, 8-chloro-1-methyl-6-phenyl-4H-3-triazolo[4,3-a][1,2]-benzodiazepine]",–,–,–,–,3 mg/kg,–,–,–,–
